Laboratory results reported in ChEMBL document CHEMBL4308907, “Pyrrolidinone-bearing methylated and halogenated benzenesulfonamides as inhibitors of carbonic anhydrases” (Bioorg Med Chem, 2019).

What was measured:
[1] = target: Carbonic anhydrase 1 (Homo sapiens, UniProt P00915); assay: Binding affinity to recombinant human CA1 by DSF-based fluorescence thermal shift assay
[2] = target: T1, Carbonic anhydrase 2 (Homo sapiens, UniProt P00918); assay: Binding affinity to recombinant human CA2 by DSF-based fluorescence thermal shift assay
[3] = target: Carbonic anhydrase 3 (Homo sapiens, UniProt P07451); assay: Binding affinity to recombinant N-terminal His6x-tagged human CA3 (4 to 260 residues) expressed in Escherichia coli BL21(DE3) by DSF-based fluorescence thermal shift assay
[4] = target: Carbonic anhydrase 4 (Homo sapiens, UniProt P22748); assay: Binding affinity to recombinant human CA4 by DSF-based fluorescence thermal shift assay
[5] = target: Carbonic anhydrase 5B, mitochondrial (Homo sapiens, UniProt Q9Y2D0); assay: Binding affinity to recombinant full length N-terminal His6x-tagged human CA5B expressed in Escherichia coli Rosetta 2 (DE3) by DSF-based fluorescence thermal shift assay
[6] = target: Carbonic anhydrase 6 (Homo sapiens, UniProt P23280); assay: Binding affinity to recombinant human CA6 by DSF-based fluorescence thermal shift assay
[7] = target: Carbonic anhydrase 7 (Homo sapiens, UniProt P43166); assay: Binding affinity to recombinant human CA7 by DSF-based fluorescence thermal shift assay
[8] = target: Carbonic anhydrase 9 (Homo sapiens, UniProt Q16790); assay: Binding affinity to recombinant human CA9 by DSF-based fluorescence thermal shift assay
[9] = target: Carbonic anhydrase 12 (Homo sapiens, UniProt O43570); assay: Binding affinity to recombinant human CA12 by DSF-based fluorescence thermal shift assay
[10] = target: Carbonic anhydrase 13 (Homo sapiens, UniProt Q8N1Q1); assay: Binding affinity to recombinant human CA13 by DSF-based fluorescence thermal shift assay
[11] = target: T1, Carbonic anhydrase 2; assay: Binding affinity to recombinant human CA2 in pH 7 sodium phosphate buffer at 37 degC by isothermal titration calorimetry
[12] = target: Carbonic anhydrase 5A, mitochondrial (Homo sapiens, UniProt P35218); assay: Binding affinity to recombinant full length C-terminal His6x-tagged human CA5A expressed in Escherichia coli BL21(DE3) by DSF-based fluorescence thermal shift assay
[13] = target: Carbonic anhydrase 14 (Homo sapiens, UniProt Q9ULX7); assay: Binding affinity to recombinant N-terminal His6x-tagged human CA14 (20 to 280 residues) catalytic domain expressed in Escherichia coli Rosetta 2 (DE3) by DSF-based fluorescence thermal shift assay
Sequence of Carbonic anhydrase 14 (Q9ULX7 whole entry, the tested form may be a part): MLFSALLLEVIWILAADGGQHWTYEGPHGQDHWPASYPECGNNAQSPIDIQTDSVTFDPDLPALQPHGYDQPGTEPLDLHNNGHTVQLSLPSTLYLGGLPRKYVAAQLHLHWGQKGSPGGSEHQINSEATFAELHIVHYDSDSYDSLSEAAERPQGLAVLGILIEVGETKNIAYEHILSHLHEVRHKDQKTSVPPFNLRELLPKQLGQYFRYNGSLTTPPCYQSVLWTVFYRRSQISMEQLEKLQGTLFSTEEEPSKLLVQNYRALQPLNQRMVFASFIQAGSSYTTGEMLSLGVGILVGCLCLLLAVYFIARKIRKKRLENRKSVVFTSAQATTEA

Sequence of Carbonic anhydrase 13 (Q8N1Q1 whole entry): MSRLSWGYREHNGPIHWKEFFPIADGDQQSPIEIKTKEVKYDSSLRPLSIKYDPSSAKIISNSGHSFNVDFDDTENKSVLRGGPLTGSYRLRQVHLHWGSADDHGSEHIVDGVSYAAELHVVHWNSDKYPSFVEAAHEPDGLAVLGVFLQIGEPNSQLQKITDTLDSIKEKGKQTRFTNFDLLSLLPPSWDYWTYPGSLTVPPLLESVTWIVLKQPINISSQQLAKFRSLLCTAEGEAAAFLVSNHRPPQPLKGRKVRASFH
Sequence of Carbonic anhydrase 6 (P23280 whole entry): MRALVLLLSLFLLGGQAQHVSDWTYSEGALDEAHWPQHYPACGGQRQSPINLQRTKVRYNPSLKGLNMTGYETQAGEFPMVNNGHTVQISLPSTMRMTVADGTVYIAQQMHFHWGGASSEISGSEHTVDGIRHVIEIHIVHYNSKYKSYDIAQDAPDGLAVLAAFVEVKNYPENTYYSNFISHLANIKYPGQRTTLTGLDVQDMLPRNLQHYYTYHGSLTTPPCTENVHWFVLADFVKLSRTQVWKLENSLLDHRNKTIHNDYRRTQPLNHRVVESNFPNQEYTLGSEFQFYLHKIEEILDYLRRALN
Sequence of Carbonic anhydrase 4 (P22748 whole entry): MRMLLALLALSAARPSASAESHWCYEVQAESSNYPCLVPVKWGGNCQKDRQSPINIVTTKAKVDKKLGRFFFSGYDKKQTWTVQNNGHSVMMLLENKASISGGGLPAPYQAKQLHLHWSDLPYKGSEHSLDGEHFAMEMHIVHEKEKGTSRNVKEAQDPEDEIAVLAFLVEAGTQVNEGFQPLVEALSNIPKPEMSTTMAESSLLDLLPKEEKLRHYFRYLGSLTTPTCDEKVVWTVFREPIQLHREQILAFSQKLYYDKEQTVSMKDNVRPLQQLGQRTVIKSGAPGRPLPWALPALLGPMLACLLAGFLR
Sequence of Carbonic anhydrase 12 (O43570 whole entry): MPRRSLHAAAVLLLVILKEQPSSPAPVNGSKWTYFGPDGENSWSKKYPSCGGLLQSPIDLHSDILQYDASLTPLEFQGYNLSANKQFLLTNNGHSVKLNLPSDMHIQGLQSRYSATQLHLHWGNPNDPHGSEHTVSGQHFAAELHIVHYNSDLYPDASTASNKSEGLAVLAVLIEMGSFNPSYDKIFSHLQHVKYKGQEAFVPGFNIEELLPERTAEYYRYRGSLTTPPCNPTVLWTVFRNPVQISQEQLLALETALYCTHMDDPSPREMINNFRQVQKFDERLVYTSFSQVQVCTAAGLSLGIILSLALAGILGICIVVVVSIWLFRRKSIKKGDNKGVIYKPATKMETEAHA
Sequence of Carbonic anhydrase 1 (P00915 whole entry): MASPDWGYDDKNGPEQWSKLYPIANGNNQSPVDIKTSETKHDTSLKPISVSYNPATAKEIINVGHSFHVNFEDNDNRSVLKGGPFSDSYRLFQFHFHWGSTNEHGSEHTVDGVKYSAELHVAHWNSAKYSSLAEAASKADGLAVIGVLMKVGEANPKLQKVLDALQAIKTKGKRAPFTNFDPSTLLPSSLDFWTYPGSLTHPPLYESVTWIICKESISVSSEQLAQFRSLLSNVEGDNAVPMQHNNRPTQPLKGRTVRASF
Sequence of Carbonic anhydrase 7 (P43166 whole entry): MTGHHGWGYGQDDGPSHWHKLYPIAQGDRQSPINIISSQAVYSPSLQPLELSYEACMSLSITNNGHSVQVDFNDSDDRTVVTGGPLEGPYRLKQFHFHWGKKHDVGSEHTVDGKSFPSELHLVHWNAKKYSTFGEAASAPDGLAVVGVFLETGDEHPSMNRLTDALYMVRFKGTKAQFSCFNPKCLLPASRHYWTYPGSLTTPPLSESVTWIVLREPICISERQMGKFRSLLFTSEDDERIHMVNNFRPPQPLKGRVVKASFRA
Sequence of Carbonic anhydrase 5B, mitochondrial (Q9Y2D0 whole entry): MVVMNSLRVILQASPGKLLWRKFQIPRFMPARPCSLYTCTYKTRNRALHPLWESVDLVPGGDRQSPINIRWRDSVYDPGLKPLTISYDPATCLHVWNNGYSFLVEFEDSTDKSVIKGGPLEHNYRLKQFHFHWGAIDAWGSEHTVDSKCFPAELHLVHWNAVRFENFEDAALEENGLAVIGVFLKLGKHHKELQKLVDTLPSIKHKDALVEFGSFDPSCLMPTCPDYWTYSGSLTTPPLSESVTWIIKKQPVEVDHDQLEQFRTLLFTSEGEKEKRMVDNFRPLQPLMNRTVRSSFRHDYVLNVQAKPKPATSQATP
Sequence of Carbonic anhydrase 3 (P07451 whole entry, the tested form may be a part): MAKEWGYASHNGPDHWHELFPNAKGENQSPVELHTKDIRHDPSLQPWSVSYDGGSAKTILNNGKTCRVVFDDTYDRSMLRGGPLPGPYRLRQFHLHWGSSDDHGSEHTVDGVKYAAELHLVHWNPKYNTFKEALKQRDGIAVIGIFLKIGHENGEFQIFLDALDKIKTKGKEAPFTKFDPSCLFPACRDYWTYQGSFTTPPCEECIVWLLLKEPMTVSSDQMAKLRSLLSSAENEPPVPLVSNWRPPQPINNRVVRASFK
Sequence of Carbonic anhydrase 5A, mitochondrial (P35218 whole entry, the tested form may be a part): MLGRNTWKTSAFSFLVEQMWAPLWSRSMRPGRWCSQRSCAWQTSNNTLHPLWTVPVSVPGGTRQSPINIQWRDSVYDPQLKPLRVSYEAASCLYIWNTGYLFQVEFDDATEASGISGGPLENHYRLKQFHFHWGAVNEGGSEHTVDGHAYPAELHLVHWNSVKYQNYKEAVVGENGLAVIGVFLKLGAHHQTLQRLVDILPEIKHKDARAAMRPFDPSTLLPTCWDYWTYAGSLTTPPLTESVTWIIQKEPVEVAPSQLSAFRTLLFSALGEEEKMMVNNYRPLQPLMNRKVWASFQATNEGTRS

## Cc1cc(C)n(C(=O)C2CC(=O)N(c3cc(C)c(S(N)(=O)=O)c(C)c3)C2)n1 (stereo not drawn)
[1]
  Kd: 1.5 µM
[2]
  Kd: 0.91 µM
[3]
  Kd: ≥ 200 µM
[4]
  Kd: 6 µM
[5]
  Kd: 0.5 µM
[6]
  Kd: 28 µM
[7]
  Kd: 3.3 µM
[8]
  Kd: 2 µM
[9]
  Kd: 8.3 µM
[10]
  Kd: 3.7 µM
[11]
  Kd: 0.318 µM

## Cc1cc(N2CC(C(=O)NN)CC2=O)cc(C)c1S(N)(=O)=O (stereo not drawn)
[1]
  Kd: 17 µM
[2]
  Kd: 11 µM
[3]
  Kd: ≥ 200 µM
[4]
  Kd: 9.1 µM
[12]
  Kd: 20 µM
[5]
  Kd: 1.4 µM
[6]
  Kd: 50 µM
[7]
  Kd: 50 µM
[8]
  Kd: 13 µM
[9]
  Kd: 50 µM
[10]
  Kd: 100 µM
[13]
  Kd: 5 µM

## COC(=O)C1CC(=O)N(c2cc(C)c(S(N)(=O)=O)cc2C)C1 (stereo not drawn)
[1]
  Kd: 11 µM
[2]
  Kd: 1.6 µM
[3]
  Kd: ≥ 200 µM
[4]
  Kd: 10 µM
[5]
  Kd: 0.18 µM
[6]
  Kd: 29 µM
[7]
  Kd: 0.031 µM
[8]
  Kd: 1.6 µM
[9]
  Kd: 12 µM
[10]
  Kd: 0.58 µM
[13]
  Kd: 0.84 µM

## NS(=O)(=O)c1ccc(N2CC(C(=O)O)CC2=O)cc1 (stereo not drawn)
[1]
  Kd: 4.2 µM
[2]
  Kd: 0.5 µM
[3]
  Kd: ≥ 200 µM
[4]
  Kd: 2.5 µM
[5]
  Kd: 4.7 µM
[6]
  Kd: 6.7 µM
[7]
  Kd: 0.46 µM
[8]
  Kd: 0.33 µM
[9]
  Kd: 2 µM
[13]
  Kd: 0.72 µM

## Cc1cc(N2CC(C(=O)NN)CC2=O)c(Cl)c(C)c1S(N)(=O)=O (stereo not drawn)
[1]
  Kd: 2.5 µM
[2]
  Kd: 0.14 µM
[3]
  Kd: ≥ 200 µM
[4]
  Kd: 0.5 µM
[5]
  Kd: 0.14 µM
[6]
  Kd: 4.8 µM
[7]
  Kd: 0.1 µM
[8]
  Kd: 0.33 µM
[10]
  Kd: 0.2 µM
[13]
  Kd: 0.04 µM

## Cc1cc(S(N)(=O)=O)c(C)cc1N1CC(C(=O)N/N=C/c2ccccc2)CC1=O (stereo not drawn)
[1]
  Kd: 7.1 µM
[2]
  Kd: 1.3 µM
[3]
  Kd: ≥ 200 µM
[4]
  Kd: 7.6 µM
[5]
  Kd: 0.028 µM
[6]
  Kd: 9.6 µM
[7]
  Kd: 1.9 µM
[8]
  Kd: 1.4 µM
[9]
  Kd: 9.3 µM
[10]
  Kd: 0.42 µM
[13]
  Kd: 0.47 µM

## Cc1cc(N2CC(C(=O)O)CC2=O)c(Cl)c(C)c1S(N)(=O)=O (stereo not drawn)
[1]
  Kd: 4.3 µM
[2]
  Kd: 0.22 µM
[3]
  Kd: 110 µM
[4]
  Kd: 0.36 µM
[5]
  Kd: 0.53 µM
[6]
  Kd: 6.3 µM
[7]
  Kd: 0.056 µM
[8]
  Kd: 0.29 µM
[9]
  Kd: 1.3 µM
[10]
  Kd: 0.22 µM
[11]
  Kd: 0.697 µM

## Cc1cc(S(N)(=O)=O)c(C)cc1N1CC(C(=O)O)CC1=O (stereo not drawn)
[1]
  Kd: 38 µM
[2]
  Kd: 6.4 µM
[3]
  Kd: 160 µM
[4]
  Kd: 19 µM
[5]
  Kd: 1.1 µM
[6]
  Kd: 22 µM
[7]
  Kd: 2.7 µM
[8]
  Kd: 2.6 µM
[9]
  Kd: 8.1 µM
[10]
  Kd: 0.67 µM
[13]
  Kd: 3.9 µM

## Cc1cc(N2CC(C(=O)O)CC2=O)cc(C)c1S(N)(=O)=O (stereo not drawn)
[1]
  Kd: 20 µM
[2]
  Kd: 12 µM
[3]
  Kd: ≥ 200 µM
[4]
  Kd: 5.9 µM
[12]
  Kd: 8.3 µM
[5]
  Kd: 3.3 µM
[6]
  Kd: 25 µM
[7]
  Kd: 20 µM
[8]
  Kd: 5 µM
[9]
  Kd: 7.7 µM
[10]
  Kd: 8.3 µM
[13]
  Kd: 3.2 µM

## NS(=O)(=O)c1ccc(N2CC(C(=O)N/N=C/c3ccccc3)CC2=O)cc1 (stereo not drawn)
[1]
  Kd: 0.63 µM
[2]
  Kd: 0.17 µM
[3]
  Kd: ≥ 200 µM
[4]
  Kd: 1.3 µM
[12]
  Kd: 1.7 µM
[5]
  Kd: 1.3 µM
[6]
  Kd: 2 µM
[7]
  Kd: 0.5 µM
[8]
  Kd: 0.059 µM
[9]
  Kd: 2.5 µM
[10]
  Kd: 0.83 µM
[13]
  Kd: 0.2 µM

## Cc1cc(N2CC(C(=O)N/N=C/c3ccccc3)CC2=O)c(Cl)c(C)c1S(N)(=O)=O (stereo not drawn)
[1]
  Kd: 0.56 µM
[2]
  Kd: 0.056 µM
[3]
  Kd: ≥ 200 µM
[4]
  Kd: 0.77 µM
[5]
  Kd: 0.02 µM
[6]
  Kd: 1.4 µM
[7]
  Kd: 0.033 µM
[8]
  Kd: 0.1 µM
[9]
  Kd: 0.77 µM
[10]
  Kd: 0.033 µM
[13]
  Kd: 0.012 µM

## Cc1cc(S(N)(=O)=O)c(C)cc1N1CC(C(=O)NN)CC1=O (stereo not drawn)
[1]
  Kd: 58 µM
[2]
  Kd: 8.1 µM
[3]
  Kd: ≥ 200 µM
[4]
  Kd: 14 µM
[5]
  Kd: 0.66 µM
[6]
  Kd: 24 µM
[7]
  Kd: 4.4 µM
[8]
  Kd: 9 µM
[9]
  Kd: 21 µM
[10]
  Kd: 2.8 µM
[13]
  Kd: 4 µM

## COC(=O)C1CC(=O)N(c2ccc(S(N)(=O)=O)cc2)C1 (stereo not drawn)
[1]
  Kd: 1 µM
[2]
  Kd: 0.15 µM
[3]
  Kd: ≥ 200 µM
[4]
  Kd: 1.5 µM
[5]
  Kd: 3.3 µM
[6]
  Kd: 0.094 µM
[7]
  Kd: 0.13 µM
[8]
  Kd: 0.17 µM
[9]
  Kd: 4 µM
[10]
  Kd: 1.1 µM
[13]
  Kd: 0.096 µM

## NNC(=O)C1CC(=O)N(c2ccc(S(N)(=O)=O)cc2)C1 (stereo not drawn)
[1]
  Kd: 3.3 µM
[2]
  Kd: 0.5 µM
[3]
  Kd: ≥ 200 µM
[4]
  Kd: 2.2 µM
[12]
  Kd: 50 µM
[5]
  Kd: 10 µM
[6]
  Kd: 10 µM
[7]
  Kd: 0.67 µM
[8]
  Kd: 0.63 µM
[9]
  Kd: 4 µM
[10]
  Kd: 7.7 µM
[13]
  Kd: 0.91 µM

## Cc1cc(N2CC(C(=O)N/N=C/c3ccc([N+](=O)[O-])cc3)CC2=O)cc(C)c1S(N)(=O)=O (stereo not drawn)
[1]
  Kd: 1 µM
[2]
  Kd: 1.7 µM
[3]
  Kd: ≥ 200 µM
[4]
  Kd: 4.7 µM
[5]
  Kd: 0.4 µM
[6]
  Kd: 10 µM
[7]
  Kd: 33 µM
[8]
  Kd: 2 µM
[9]
  Kd: 22 µM
[10]
  Kd: 17 µM

## Cc1cc(C)n(NC(=O)C2CC(=O)N(c3cc(C)c(S(N)(=O)=O)c(C)c3)C2)n1 (stereo not drawn)
[1]
  Kd: 2.9 µM
[2]
  Kd: 2 µM
[3]
  Kd: ≥ 200 µM
[4]
  Kd: 2 µM
[5]
  Kd: 0.5 µM
[6]
  Kd: 29 µM
[7]
  Kd: 33 µM
[8]
  Kd: 2 µM
[9]
  Kd: 67 µM
[10]
  Kd: 8.3 µM

## Cc1cc(C)cc(N2CC(C(=O)O)CC2=O)c1 (stereo not drawn)
[1]
  Kd: ≥ 200 µM
[2]
  Kd: ≥ 200 µM
[3]
  Kd: ≥ 200 µM
[4]
  Kd: ≥ 200 µM
[5]
  Kd: ≥ 200 µM
[6]
  Kd: ≥ 200 µM
[7]
  Kd: ≥ 200 µM
[8]
  Kd: ≥ 200 µM
[9]
  Kd: ≥ 200 µM
[10]
  Kd: ≥ 200 µM

## Cc1cc(N2CC(C(=O)N/N=C/c3ccc(Cl)cc3)CC2=O)cc(C)c1S(N)(=O)=O (stereo not drawn)
[1]
  Kd: 1.7 µM
[2]
  Kd: 2 µM
[3]
  Kd: ≥ 200 µM
[4]
  Kd: 18 µM
[5]
  Kd: 0.67 µM
[6]
  Kd: 14 µM
[7]
  Kd: ≥ 200 µM
[8]
  Kd: 3.3 µM
[9]
  Kd: ≥ 200 µM
[10]
  Kd: ≥ 200 µM

## NS(=O)(=O)c1ccc(NC(=O)C2CC(=O)N(c3ccc(Br)cc3)C2)cc1 (stereo not drawn)
[1]
  Kd: 3.3 µM
[2]
  Kd: 0.64 µM
[3]
  Kd: ≥ 200 µM
[4]
  Kd: 5.6 µM
[5]
  Kd: 3.8 µM
[6]
  Kd: 17 µM
[7]
  Kd: 1.5 µM
[8]
  Kd: 0.43 µM
[9]
  Kd: 39 µM
[10]
  Kd: 3.1 µM

## Cc1cc(S(N)(=O)=O)c(C)cc1N1CC(C(=O)N/N=C/c2ccc([N+](=O)[O-])cc2)CC1=O (stereo not drawn)
[1]
  Kd: 6.2 µM
[2]
  Kd: 2.1 µM
[3]
  Kd: ≥ 200 µM
[4]
  Kd: 17 µM
[5]
  Kd: 0.028 µM
[6]
  Kd: 9.9 µM
[7]
  Kd: 1.3 µM
[8]
  Kd: 1.1 µM
[9]
  Kd: 14 µM
[10]
  Kd: 0.32 µM

## Cc1cc(N2CC(C(=O)N/N=C/c3ccccc3)CC2=O)cc(C)c1S(N)(=O)=O (stereo not drawn)
[1]
  Kd: 2.2 µM
[2]
  Kd: 2.2 µM
[3]
  Kd: ≥ 200 µM
[4]
  Kd: 5 µM
[12]
  Kd: 2 µM
[5]
  Kd: 0.71 µM
[6]
  Kd: 25 µM
[7]
  Kd: 30 µM
[8]
  Kd: 2 µM
[9]
  Kd: 29 µM
[10]
  Kd: 22 µM
[13]
  Kd: 2 µM
